Test results from ChEMBL document CHEMBL3853264 (Medchemcomm, 2016).

Legend:
[1] = Intrinsic clearance in human hepatocytes assessed per 10^6 cells; format: ADME, cell-based, Hepatocyte; details: read-out: CLH
Rattus norvegicus [2] = assay: Toxicity in rat assessed as mortality at 300 mg/kg/day, po measured over 14 days; format: organism-based; details: in vivo, 336 h
Cytochrome P450 3A4 = Cytochrome P450 3A4 (Homo sapiens, UniProt P08684); assay: Inhibition of CYP3A4 (unknown origin); format: ADME
Chain of Cytochrome P450 3A4 (P08684 whole entry): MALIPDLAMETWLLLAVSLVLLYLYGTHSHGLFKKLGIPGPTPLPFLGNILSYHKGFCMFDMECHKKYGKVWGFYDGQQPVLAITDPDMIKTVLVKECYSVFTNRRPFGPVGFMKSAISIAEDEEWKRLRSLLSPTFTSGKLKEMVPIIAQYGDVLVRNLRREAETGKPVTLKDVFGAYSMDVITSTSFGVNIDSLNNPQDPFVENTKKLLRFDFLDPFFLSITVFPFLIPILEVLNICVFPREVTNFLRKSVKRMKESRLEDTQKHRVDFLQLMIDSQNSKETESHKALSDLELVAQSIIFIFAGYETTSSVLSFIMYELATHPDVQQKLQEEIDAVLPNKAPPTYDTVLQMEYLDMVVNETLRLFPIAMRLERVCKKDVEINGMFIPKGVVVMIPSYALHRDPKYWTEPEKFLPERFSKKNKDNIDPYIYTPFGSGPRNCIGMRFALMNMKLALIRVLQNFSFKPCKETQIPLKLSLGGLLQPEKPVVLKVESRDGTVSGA

[3] = Octanol-water partition co-efficient, log D of the compound by shake flask method; format: physicochemical
Cytochrome P450 2D6 = Cytochrome P450 2D6 (Homo sapiens, UniProt P10635); assay: Inhibition of CYP2D6 (unknown origin); format: ADME
Canis familiaris [4] = assay: Hepatotoxicity in female dog assessed as pathological changes at >= 100 mg/kg/day, po measured over 14 days; format: toxicity, organism-based, Canis lupus familiaris; details: in vivo, 336 h
[5] = Intrinsic clearance in human liver microsomes; format: ADME; details: read-out: CLH
[6] = Oral bioavailability in rat at 2.3 mg/kg; format: ADME, organism-based; details: in vivo
[7] = molecular target: Solute carrier organic anion transporter family member 1B3 (Homo sapiens, UniProt Q9NPD5); assay: Drug uptake assessed as human OATP1B3-mediated drug accumulation by cell-based assay relative to wild type protein; format: ADME
Chain of Solute carrier organic anion transporter family member 1B3 (Q9NPD5 whole entry): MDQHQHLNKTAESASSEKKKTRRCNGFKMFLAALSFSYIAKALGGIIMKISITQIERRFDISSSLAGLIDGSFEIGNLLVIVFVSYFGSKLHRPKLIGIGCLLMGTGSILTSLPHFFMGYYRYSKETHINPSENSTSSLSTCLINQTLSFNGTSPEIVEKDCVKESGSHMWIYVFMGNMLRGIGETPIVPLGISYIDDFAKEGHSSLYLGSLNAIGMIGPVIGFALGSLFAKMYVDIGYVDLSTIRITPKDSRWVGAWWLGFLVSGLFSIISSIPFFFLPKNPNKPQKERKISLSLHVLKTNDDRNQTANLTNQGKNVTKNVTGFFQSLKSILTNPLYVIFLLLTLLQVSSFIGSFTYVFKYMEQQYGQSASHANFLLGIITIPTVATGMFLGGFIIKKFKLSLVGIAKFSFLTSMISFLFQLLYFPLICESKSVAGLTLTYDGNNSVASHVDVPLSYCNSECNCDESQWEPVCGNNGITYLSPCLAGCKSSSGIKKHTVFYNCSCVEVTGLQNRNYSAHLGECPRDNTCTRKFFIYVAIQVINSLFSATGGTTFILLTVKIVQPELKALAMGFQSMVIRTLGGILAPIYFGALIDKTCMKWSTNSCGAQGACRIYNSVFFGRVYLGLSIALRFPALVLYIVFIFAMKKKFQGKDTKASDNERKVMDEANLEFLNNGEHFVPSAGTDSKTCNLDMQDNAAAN

[8] = molecular target: Organic anion transporter 3 (Homo sapiens, UniProt Q8TCC7); assay: Inhibition of OAT3 (unknown origin)
[9] = Half life in rat at 0.5 mg/kg, iv and 1 mg/kg, po; format: ADME, organism-based; details: in vivo
Rattus norvegicus [10] = assay: Cardiovascular toxicity in rat assessed as decrease in body temperature at 10 mg/kg, po measured over 14 days; format: organism-based; details: in vivo, 336 h
[11] = Average plasma concentration in dog at 30 mg/kg, po administered as single dose measured on day 14; format: ADME, organism-based, Canis lupus familiaris; details: in vivo
[12] = Drug excretion in bile of bile duct cannulated rat; format: ADME; details: read-out: Drug excretion
Cytochrome P450 2C9 = Cytochrome P450 2C9 (Homo sapiens, UniProt P11712); assay: Inhibition of CYP2C9 (unknown origin); format: ADME
Chain of Cytochrome P450 2C9 (P11712 whole entry): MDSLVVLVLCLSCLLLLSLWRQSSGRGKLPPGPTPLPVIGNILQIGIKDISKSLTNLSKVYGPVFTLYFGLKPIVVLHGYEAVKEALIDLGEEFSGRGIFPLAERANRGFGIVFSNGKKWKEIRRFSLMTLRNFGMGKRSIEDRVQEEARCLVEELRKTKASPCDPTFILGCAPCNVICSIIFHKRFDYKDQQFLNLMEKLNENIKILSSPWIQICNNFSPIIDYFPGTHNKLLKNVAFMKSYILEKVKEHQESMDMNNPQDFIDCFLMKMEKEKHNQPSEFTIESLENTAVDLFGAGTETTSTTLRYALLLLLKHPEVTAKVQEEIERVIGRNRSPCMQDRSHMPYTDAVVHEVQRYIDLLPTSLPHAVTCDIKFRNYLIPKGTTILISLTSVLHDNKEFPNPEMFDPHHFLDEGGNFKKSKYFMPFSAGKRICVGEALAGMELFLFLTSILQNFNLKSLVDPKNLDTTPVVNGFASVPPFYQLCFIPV

[13] = Renal clearance in rat; format: ADME; details: in vivo
[14] = Mutagenicity in […] by Ames test in presence of […] fraction; format: toxicity
[15] = Average plasma concentration in rat at 30 mg/kg, po administered as single dose measured on day 14; format: ADME, organism-based; details: in vivo
[16] = molecular target: Sodium channel protein type 9 subunit alpha (Homo sapiens, UniProt Q15858); assay: Inhibition of NaV1.7 (unknown origin) by electrophysiology assay
Chain of Sodium channel protein type 9 subunit alpha (Q15858 whole entry): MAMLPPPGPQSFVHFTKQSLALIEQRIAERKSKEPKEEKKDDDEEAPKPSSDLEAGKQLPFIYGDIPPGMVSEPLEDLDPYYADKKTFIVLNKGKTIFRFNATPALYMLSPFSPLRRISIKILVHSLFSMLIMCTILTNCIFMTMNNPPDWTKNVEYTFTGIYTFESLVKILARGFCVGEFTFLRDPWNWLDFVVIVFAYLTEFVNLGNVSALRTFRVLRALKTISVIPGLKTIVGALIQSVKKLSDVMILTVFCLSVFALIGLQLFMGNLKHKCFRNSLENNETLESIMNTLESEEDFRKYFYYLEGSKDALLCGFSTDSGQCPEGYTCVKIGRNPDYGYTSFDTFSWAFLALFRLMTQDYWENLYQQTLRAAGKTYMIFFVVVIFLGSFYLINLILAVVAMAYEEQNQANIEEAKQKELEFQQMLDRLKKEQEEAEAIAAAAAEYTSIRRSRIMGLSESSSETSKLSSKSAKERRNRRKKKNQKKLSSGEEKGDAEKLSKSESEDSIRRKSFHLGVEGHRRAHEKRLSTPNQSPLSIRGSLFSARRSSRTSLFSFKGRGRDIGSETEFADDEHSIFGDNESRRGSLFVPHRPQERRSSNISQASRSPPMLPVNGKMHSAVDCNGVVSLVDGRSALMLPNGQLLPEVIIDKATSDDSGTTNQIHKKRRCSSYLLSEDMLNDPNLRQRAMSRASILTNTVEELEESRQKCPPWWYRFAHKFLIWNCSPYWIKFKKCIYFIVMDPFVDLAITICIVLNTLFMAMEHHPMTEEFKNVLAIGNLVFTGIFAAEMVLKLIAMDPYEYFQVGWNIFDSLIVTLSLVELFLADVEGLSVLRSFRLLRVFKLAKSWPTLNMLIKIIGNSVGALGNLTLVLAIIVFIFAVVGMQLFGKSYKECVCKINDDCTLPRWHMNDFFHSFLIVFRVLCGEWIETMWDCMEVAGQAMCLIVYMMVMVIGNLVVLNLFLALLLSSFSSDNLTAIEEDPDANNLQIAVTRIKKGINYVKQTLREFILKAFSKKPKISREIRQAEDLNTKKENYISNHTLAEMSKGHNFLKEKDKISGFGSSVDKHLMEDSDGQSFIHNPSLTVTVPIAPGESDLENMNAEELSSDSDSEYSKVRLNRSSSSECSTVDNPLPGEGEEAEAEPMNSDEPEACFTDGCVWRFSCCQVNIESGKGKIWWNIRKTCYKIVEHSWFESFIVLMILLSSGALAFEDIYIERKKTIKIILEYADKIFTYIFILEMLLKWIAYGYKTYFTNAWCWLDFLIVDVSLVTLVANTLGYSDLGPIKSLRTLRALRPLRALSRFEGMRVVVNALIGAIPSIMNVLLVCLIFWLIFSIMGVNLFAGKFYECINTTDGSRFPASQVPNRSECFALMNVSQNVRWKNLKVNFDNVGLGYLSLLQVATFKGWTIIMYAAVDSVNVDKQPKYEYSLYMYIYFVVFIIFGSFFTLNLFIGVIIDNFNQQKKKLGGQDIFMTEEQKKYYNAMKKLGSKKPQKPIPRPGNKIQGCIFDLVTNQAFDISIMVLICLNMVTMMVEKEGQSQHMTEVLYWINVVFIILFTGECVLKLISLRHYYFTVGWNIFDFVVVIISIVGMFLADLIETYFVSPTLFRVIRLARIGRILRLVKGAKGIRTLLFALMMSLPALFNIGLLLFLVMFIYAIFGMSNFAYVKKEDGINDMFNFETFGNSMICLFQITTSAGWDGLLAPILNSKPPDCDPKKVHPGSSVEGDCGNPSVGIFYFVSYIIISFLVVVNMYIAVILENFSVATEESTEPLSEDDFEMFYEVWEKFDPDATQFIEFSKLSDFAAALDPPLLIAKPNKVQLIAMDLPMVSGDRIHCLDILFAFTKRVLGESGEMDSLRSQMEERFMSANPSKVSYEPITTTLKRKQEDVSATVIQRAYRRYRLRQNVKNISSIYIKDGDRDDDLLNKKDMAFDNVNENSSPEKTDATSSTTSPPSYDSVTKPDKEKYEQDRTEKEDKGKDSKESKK

Cytochrome P450 1A2 = Cytochrome P450 1A2 (Homo sapiens, UniProt P05177); assay: Inhibition of CYP1A2 (unknown origin); format: ADME
Chain of Cytochrome P450 1A2 (P05177 whole entry): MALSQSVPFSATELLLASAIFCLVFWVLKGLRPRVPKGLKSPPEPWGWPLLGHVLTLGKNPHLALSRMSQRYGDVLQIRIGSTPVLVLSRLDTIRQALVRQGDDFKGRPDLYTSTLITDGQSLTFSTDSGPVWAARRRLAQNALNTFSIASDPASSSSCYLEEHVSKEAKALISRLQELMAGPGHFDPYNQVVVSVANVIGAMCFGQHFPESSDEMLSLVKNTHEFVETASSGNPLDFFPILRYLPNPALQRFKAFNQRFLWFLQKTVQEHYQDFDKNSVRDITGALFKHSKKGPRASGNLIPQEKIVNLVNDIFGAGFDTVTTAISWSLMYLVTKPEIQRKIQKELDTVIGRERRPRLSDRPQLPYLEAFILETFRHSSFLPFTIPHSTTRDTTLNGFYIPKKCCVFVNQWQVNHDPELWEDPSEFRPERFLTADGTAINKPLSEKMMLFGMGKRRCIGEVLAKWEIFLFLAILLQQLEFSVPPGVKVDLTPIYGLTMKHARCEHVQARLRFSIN

[17] = Dissociation constant, pKa of the compound; format: physicochemical
[18] = Average plasma concentration in rat at 10 mg/kg, po administered as single dose measured on day 14; format: ADME, organism-based; details: in vivo
Rattus norvegicus [19] = assay: Cardiovascular toxicity in rat assessed as small biphasic change in blood pressure at 30 to 100 mg/kg, po measured over 14 days; format: organism-based; details: in vivo, 336 h
[20] = Mutagenicity in […] by Ames test in absence of […] fraction; format: toxicity
[21] = Unbound Cmax in rat at 30 mg/kg, po administered as single dose measured on day 14; format: ADME, organism-based; details: in vivo
[22] = Renal clearance in dog; format: ADME, Canis lupus familiaris; details: in vivo
Rattus norvegicus [23] = assay: Toxicity in rat assessed as hypertrophy/hyperplasia of the urothelium at 300 mg/kg/day, po measured over 14 days by microscopic analysis; format: organism-based; details: in vivo, 336 h
[24] = Drug metabolism in dog assessed as oxidation of chlorophenyl ring; format: ADME, Canis lupus familiaris
[25] = Half life in rat at 0.76 mg/kg, iv and 2.3 mg/kg, po; format: ADME, organism-based; details: in vivo
[26] = Unbound Cmax in dog at 30 mg/kg, po administered as single dose measured on day 14; format: ADME, organism-based, Canis lupus familiaris; details: in vivo
[27] = molecular target: Solute carrier family 22 member 11 (Homo sapiens, UniProt Q9NSA0); assay: Inhibition of OAT4 (unknown origin)
Chain of Solute carrier family 22 member 11 (Q9NSA0 whole entry): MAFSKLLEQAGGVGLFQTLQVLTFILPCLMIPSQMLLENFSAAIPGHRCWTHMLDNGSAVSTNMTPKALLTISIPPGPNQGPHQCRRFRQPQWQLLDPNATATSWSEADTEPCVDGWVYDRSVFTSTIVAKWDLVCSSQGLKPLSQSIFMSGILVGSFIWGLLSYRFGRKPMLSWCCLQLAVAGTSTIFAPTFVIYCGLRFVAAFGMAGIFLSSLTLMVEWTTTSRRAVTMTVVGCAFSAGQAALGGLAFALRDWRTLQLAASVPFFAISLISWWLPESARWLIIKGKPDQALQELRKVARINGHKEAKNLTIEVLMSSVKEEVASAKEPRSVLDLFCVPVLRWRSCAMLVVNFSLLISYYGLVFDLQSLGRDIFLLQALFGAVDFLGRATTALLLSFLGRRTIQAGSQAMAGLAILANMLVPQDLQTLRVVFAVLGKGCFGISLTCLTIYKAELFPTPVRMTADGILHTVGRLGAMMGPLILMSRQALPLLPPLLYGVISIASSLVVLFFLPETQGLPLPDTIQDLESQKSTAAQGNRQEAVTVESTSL

Canis familiaris [28] = assay: Hepatotoxicity in male dog assessed as decrease in alanine aminotransferase levels at >= 30 mg/kg/day, po measured over 14 days; format: toxicity, organism-based, Canis lupus familiaris; details: in vivo, 336 h
[29] = Unbound clearance in rat at 0.5 mg/kg, iv and 1 mg/kg, po; format: ADME, organism-based; details: in vivo
[30] = Toxicity in po dosed rat measured over 14 days; format: organism-based; details: in vivo
[31] = Drug metabolism in rat assessed as loss of chlorobenzonitrile moiety in presence of glutathione; format: ADME
[32] = Permeability in RRCK cells; format: ADME, cell-based, Canis lupus familiaris, MDCKII-LE; details: dog, MDCK; read-out: permeability
[33] = Plasma clearance in rat at 0.76 mg/kg, iv and 2.3 mg/kg, po; format: ADME, organism-based
[34] = Fraction unbound in dog plasma; format: ADME, cell-free, Canis lupus familiaris
Rattus norvegicus [35] = assay: Cardiovascular toxicity in rat assessed as decrease in heart rate at 10 mg/kg, po measured over 14 days; format: organism-based; details: in vivo, 336 h
Cytochrome P450 2C19 = Cytochrome P450 2C19 (Homo sapiens, UniProt P33261); assay: Inhibition of CYP2C19 (unknown origin); format: ADME
[36] = Toxicity in po dosed dog measured assessed as drug tolerance measured over 14 days; format: organism-based, Canis lupus familiaris; details: in vivo, 336 h
[37] = Drug metabolism in dog assessed as loss of chlorobenzonitrile moiety in presence of glutathione; format: ADME, Canis lupus familiaris
[38] = Volume of distribution at steady state in rat at 0.5 mg/kg, iv and 1 mg/kg, po; format: ADME, organism-based; details: in vivo, read-out: Vdss
[39] = Plasma clearance in rat at 0.5 mg/kg, iv and 1 mg/kg, po; format: ADME, organism-based
[40] = Oral bioavailability in rat at 1 mg/kg; format: ADME, organism-based; details: in vivo
[41] = Drug metabolism in human liver microsomes assessed as oxidation of chlorophenyl ring; format: ADME
[42] = Fraction unbound in rat plasma; format: ADME, cell-free
[43] = molecular target: T1, Solute carrier family 22 member 12 (Homo sapiens, UniProt Q96S37); assay: Inhibition of human C-terminal eGFP-tagged URAT1 long isoform expressed in CHO cells assessed as decrease in [14C]-uric acid uptake preincubated for 15 mins followed by [14C]-uric acid addition and incubated in dark for 3 hrs by scintillation counting method; format: cell-based
T1 sequence (Q96S37 whole entry): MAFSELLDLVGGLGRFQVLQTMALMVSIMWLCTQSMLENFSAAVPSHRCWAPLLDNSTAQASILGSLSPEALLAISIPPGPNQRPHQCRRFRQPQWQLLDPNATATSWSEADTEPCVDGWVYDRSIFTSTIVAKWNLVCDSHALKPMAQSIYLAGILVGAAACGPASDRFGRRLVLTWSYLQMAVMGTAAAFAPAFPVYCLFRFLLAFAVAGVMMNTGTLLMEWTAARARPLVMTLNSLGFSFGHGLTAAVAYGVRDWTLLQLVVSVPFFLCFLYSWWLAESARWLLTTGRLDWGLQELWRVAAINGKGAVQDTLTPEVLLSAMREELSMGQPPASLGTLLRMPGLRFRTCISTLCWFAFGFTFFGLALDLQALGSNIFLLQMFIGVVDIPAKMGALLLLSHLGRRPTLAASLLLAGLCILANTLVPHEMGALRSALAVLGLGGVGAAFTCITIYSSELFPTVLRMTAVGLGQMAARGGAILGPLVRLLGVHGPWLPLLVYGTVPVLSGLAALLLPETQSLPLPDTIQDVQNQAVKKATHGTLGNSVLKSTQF

[44] = Unbound clearance in rat at 0.76 mg/kg, iv and 2.3 mg/kg, po; format: ADME, organism-based; details: in vivo

Structure (SMILES): N#Cc1ccc(Oc2ccc(S(=O)(=O)Nc3ccc(F)cn3)cc2C#N)cc1Cl
- hepatocyte CLint [1]: 23 µL/min/1e6 cells
- Activity (Rattus norvegicus [2]): Toxic
- IC50 (Cytochrome P450 3A4): 17.5 µM
- logD [3]: 1.8
- IC50 (Cytochrome P450 2D6): > 30 µM
- Activity (Canis familiaris [4]): Non-Toxic
- microsomal CLint [5]: < 13 µL/min/mg
- bioavailability [6]: 100%
- fold change (FC) [7]: 1.067
- IC50 [8]: 0.72 µM
- half-life [9]: 6.7 h
- Activity (Rattus norvegicus [10]): Toxic
- Cave [11]: 3.98 µM
- dose excreted [12]: < 0.5%
- IC50 (Cytochrome P450 2C9): 4.2 µM
- CL renal [13]: 0.0001 mL/min/kg
- Activity [14]: Non-Toxic
- Cave [15]: 0.123 µM
- IC50 [16]: > 30 µM
- IC50 (Cytochrome P450 1A2): > 30 µM
- pKa [17]: 5.8
- Cave [18]: 0.041 µM
- Activity (Rattus norvegicus [19]): Toxic
- Activity [20]: Non-Toxic
- fCmax [21]: 179 nM
- CL renal [22]: 0.0001 mL/min/kg
- Activity (Rattus norvegicus [23]): Toxic
- Drug metabolism [24]: Metabolite_Notdetected
- half-life [25]: 7.1 h
- fCmax [26]: 7.419 µM
- IC50 [27]: 14 µM
- Activity (Canis familiaris [28]): Toxic
- CL free [29]: 95 mL/min/kg
- MTD at 336 h [30]: 100 mg/kg
- Drug metabolism [31]: Metabolite_Notdetected
- Papp [32]: 160 nm/s
- clearance [33]: 0.48 mL/min/kg
- fraction unbound [34]: 0.0041
- Activity (Rattus norvegicus [35]): Toxic
- IC50 (Cytochrome P450 2C19): 17.2 µM
- Activity [36]: <= 300 mg kg-1
- Drug metabolism [37]: Metabolite_Detected
- Vd [38]: 0.18 L/kg
- clearance [39]: 0.39 mL/min/kg
- bioavailability [40]: 100%
- Drug metabolism [41]: Metabolite_Detected
- fraction unbound [42]: 0.0021
- IC50 [43]: 0.012 µM
- CL free [44]: 229 mL/min/kg
